According to US20100249138A1, “MPZP: A SMALL MOLECULE CORTICOTROPIN-RELEASING FACTOR TYPE 1 RECEPTOR (CRF1) ANTOGONIST” (priority 2007, published 2010):
“Also recorded” adds a separate entry of the source.

Assays:
CRF1 receptors = target: T1, CRF1 receptors (Rattus norvegicus, UniProt P35353); assay: [125I]-Tyr0-sauvagine competition binding, rat cerebellar membrane homogenates; set-up: from tissue; host or cells: rat cerebellum, membrane homogenate; settings: read-out: IC50, displacement of specific [125I]-Tyr0-sauvagine binding
T1 sequence (P35353 24-415): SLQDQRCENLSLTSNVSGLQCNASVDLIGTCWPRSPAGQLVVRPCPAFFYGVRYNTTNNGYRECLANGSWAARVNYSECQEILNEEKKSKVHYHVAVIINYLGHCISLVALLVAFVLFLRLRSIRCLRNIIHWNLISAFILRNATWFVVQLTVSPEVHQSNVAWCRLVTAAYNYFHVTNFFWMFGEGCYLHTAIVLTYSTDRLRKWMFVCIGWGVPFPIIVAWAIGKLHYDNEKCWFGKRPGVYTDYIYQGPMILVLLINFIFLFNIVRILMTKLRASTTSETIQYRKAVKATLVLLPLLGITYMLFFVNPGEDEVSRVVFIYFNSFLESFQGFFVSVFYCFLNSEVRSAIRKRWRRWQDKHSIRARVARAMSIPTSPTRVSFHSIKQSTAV
Description: Binding activity of MPZP was determined in a competition assay using […] (2200 Ci/mmol; Perkin Elmer, Waltham, Mass.) as the radioligand. Cerebellum was homogenized in homogenizing buffer (Dulbecco's phosphate-buffered saline [PBS]:1.5 mM KH2PO4, 8.1 mM Na2HPO4, 2.7 mM KCl, 138 mM NaCl, pH 7.2, supplemented with 10 mM MgCl2, 2 mM EGTA) using a Polytron (Dispersing and Mixing Technology, Kinematica, Littau-Lucerne, Switzerland) at setting 6 for 2×15 seconds on ice. The homogenate was centrifuged at 45,000×g for 20 minutes at 4° C. The pellet was resuspended and spun at 45,000×g for 20 minutes at 4° C. The final pellet was resuspended in assay buffer (homogenizing buffer supplemented with protease inhibitor; 1 tablet/10 ml; Sigma CAT#58829-20TAB, St. Louis, Mo., pH 7.4) using a Polytron.
Med. Chem. (2000) 8:181-189], whose structural formula is shown below.
Total binding was determined using assay buffer in lieu of a CRF1 antagonist, and nonspecific binding was determined in the presence of 1 μM unlabeled sauvagine. The final radioligand concentration was 0.2 nM, and the reaction was incubated at room temperature for 2 hours. […] The pellet-containing tip was cut off and counted in an automated 10-detector gamma counter (MicroMedic Apex, ICN Biomedical, Costa Mesa, Calif.) at 80% efficiency. […]

[1] = tested on: 62 other receptors, transporters, and ion channels; assay: Novascreen side-effect potential screening assay (GEN SEP I panel); assay type: binding; settings: 10 μM
Description: Specificity of MPZP for other receptor, transporter, and ion channel targets was determined at 1 and 10 μM concentrations via a commercial screening service (Novascreen, GEN SEP I panel, Hanover, Md.).

[2] = tested on: defensive burying model of active anxiety-like behavior; assay: Defensive burying test (Study 1); assay type: in vivo, rat
Excerpt: The defensive burying test was used to assess effects of MPZP on anxiety-like behavior [Treit et al., Pharmacol. Biochem. Behay. (1981) 15:619-626; De Boer et al., Eur. J. Pharmacol. (2003) 463:145-161]. This model has been validated by anxiolytic and anxiogenic compounds, which decrease and increase defensive burying behavior, respectively [Korte et al., Physiol. Behay. (1994) 56:115-120; De Boer et al., Eur. J. Pharmacol. (2003) 463:145-161]. For two consecutive days before defensive burying testing, animals were acclimated to the testing apparatus by placing them for 45 minutes in the testing cage (a polycarbonate rat housing cage with 2 cm of bedding covering the floor and a small hole centered on a long dimension of the cage 1 inch above the bedding to accommodate the shock probe on the subsequent test day). On the day of testing, animals were brought into the anteroom at least 2 hours before testing began. Subjects were subcutaneously pretreated with MPZP (0, 5, 20 mg/kg) in a between-subjects design 1 hour before their test session. For testing, animals were placed individually in the test cage, and a shock probe connected to a Coulbourn precision shocker (model E13-01, Coulbourn Instruments, Allentown, Pa.) delivered one 1.5 mA shock (lasting <1 s) upon contact. As soon as the animal was shocked (verified by a startle response), the shock current was deactivated, and the 10 minute test began. Contact with the shock probe under these conditions results in the rat displacing bedding material with treading-like movements of the forepaws and shoveling movements of the head, often directed toward the shock probe. Latency to the first display of burying behavior and time spent burying (in four 2.5 minute bins throughout the 10 minute test) were assessed [Korte et al., Physiol. Behay. (1994) 56:115-120]. […] The effect of MPZP on defensive burying behavior (latency to first bury and burying time) were analyzed by analysis of variance (ANOVA), in which Dose was a between-subjects factor and Time bin was a repeated measure for duration of burying.

COCCN(CCOC)c1cc(C)nc2c(-c3ccc(OC)cc3C)c(C)nn12 [MPZP, N,N-bis(2-methoxyethyl)-3-(4-methoxy-2-methylphenyl)-2,5-dimethyl-pyrazolo[1,5-a]pyrimidin-7-amine]
IC50 (CRF1 receptors): 6.1 nM | activity at 62 other receptors, transporters, and ion channels [1]: did not exhibit high activity | total duration of defensive burying behavior ([2]; 0, 5, 20 mg/kg s.c., systemic pretreatment): dose-dependently reduced; also recorded: reduced defensive burying time | duration of burying across the 10-minute observation period ([2]; 20 mg/kg s.c., 1 hour before test, vs vehicle): significantly reduced | latency to start burying ([2]; 5 and 20 mg/kg s.c., 1 hour before test, vs vehicle): increased the latency to start burying
